Calls of active or inactive are those of the source. Rule as the data show it: actives have a measured Kd and inactives only a lower limit.
Key:
[1] = target: Cyclin-dependent kinase 6 (Homo sapiens, UniProt Q00534)
[2] = target: T1, Serine/threonine-protein kinase D2 (Homo sapiens, UniProt Q9BZL6)
T1 sequence (Q9BZL6 whole entry): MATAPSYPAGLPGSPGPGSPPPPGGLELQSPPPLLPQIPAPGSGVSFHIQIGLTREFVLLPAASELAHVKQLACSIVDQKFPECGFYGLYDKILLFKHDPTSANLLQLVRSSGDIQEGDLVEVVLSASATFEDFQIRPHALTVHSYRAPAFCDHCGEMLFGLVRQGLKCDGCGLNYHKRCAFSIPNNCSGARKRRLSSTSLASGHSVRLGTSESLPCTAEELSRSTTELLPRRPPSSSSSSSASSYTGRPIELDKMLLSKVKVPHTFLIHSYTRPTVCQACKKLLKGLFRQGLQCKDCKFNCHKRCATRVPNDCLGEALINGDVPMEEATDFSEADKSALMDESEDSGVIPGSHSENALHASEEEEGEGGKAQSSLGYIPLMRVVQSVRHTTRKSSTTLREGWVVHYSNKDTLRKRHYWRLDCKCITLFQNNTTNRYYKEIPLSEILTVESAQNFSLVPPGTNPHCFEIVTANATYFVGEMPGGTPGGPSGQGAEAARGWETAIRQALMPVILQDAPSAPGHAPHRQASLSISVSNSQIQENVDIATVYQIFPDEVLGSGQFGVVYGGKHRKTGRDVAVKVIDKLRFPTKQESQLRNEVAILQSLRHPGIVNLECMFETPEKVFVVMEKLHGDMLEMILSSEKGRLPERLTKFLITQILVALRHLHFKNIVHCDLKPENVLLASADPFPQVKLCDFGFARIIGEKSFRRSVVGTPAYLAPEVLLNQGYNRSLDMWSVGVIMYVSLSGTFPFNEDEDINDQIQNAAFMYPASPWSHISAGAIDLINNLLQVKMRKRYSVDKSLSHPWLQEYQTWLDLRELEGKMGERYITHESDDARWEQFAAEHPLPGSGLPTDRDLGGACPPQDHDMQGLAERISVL

[3] = target: T2, Serine/threonine-protein kinase TAO2 (Homo sapiens, UniProt Q9UL54)
T2 sequence (Q9UL54 whole entry): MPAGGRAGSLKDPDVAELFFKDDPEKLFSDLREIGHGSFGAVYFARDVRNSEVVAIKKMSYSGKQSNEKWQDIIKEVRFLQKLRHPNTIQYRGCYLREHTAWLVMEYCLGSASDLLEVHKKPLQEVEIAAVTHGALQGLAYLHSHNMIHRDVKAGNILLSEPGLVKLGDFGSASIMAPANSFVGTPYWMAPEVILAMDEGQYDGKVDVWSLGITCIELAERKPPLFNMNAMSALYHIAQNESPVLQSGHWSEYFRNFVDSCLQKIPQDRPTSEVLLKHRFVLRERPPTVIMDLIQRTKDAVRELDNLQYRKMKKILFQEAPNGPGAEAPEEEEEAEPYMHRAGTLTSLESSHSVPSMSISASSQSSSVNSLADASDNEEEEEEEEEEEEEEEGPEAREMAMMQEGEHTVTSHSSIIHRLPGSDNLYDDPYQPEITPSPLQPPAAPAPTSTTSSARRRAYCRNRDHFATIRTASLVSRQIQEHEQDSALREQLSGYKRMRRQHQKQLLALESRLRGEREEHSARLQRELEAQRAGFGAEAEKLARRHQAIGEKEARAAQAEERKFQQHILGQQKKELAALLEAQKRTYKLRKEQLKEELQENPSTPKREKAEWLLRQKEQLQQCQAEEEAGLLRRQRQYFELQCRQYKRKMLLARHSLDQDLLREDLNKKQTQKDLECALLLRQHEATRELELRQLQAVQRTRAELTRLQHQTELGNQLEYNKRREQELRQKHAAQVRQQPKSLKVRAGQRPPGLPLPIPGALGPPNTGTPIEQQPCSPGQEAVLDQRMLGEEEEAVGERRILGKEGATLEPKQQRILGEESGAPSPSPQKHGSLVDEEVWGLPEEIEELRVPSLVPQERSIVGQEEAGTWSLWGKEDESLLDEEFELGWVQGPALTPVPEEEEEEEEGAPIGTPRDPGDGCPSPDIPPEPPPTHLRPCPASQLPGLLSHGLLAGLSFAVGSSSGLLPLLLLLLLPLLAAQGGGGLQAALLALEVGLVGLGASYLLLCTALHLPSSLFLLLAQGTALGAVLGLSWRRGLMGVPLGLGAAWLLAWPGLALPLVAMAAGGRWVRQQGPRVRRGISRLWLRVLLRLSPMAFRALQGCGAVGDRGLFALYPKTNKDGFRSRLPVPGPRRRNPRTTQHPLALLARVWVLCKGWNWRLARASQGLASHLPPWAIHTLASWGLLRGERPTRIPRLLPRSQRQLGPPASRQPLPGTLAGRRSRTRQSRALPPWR
Also: in the data inactive means no Kd found up to 30 µM.

Sequence of Cyclin-dependent kinase 6 (Q00534 whole entry): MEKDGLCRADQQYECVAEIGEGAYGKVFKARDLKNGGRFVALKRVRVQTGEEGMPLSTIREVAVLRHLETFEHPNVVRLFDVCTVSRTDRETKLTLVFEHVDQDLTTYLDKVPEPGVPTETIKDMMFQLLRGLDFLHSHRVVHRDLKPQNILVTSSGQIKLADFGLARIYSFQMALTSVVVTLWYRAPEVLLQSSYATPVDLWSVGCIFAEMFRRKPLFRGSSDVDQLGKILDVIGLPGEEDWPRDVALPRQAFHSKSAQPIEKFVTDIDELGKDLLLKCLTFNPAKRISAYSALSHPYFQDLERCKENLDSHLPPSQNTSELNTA

Kd [1] | Kd [2] | Kd [3] | SMILES
> 30 µM (inactive) | > 30 µM (inactive) | > 30 µM (inactive) | Cc1cccc(-c2nn3c(c2-c2ccnc4ccc(C(N)=O)cc24)CCC3)n1 [GALUNISERTIB]
> 30 µM (inactive) | > 30 µM (inactive) | > 30 µM (inactive) | COc1ccc(S(=O)(=O)N(C(C)=O)c2ccccc2/C=C/c2cc[n+]([O-])cc2)cc1 [HMN-214]
> 30 µM (inactive) | > 30 µM (inactive) | > 30 µM (inactive) | CNC(=O)c1cccc2cc(Oc3ccnc4cc(OCC5(N)CC5)c(OC)cc34)ccc12 [LUCITANIB]
1.72 µM (active) | 0.143 µM (active) | 5.25 µM (active) | CNC(=O)c1nn(C)c2c1C(C)(C)Cc1cnc(Nc3ccc(N4CCN(C)CC4)cc3)nc1-2 [MILCICLIB]
> 30 µM (inactive) | > 30 µM (inactive) | > 30 µM (inactive) | NC1(c2ccc(-c3nc4ccn5c(=O)[nH]nc5c4cc3-c3ccccc3)cc2)CCC1 [MK-2206]
> 30 µM (inactive) | > 30 µM (inactive) | > 30 µM (inactive) | CN(C[C@@H]1COCCO1)S(=O)(=O)Nc1ccc2ccc3ncc(-c4cnn(C)c4)cc3c(=O)c2c1 [MK-2461]
> 30 µM (inactive) | > 30 µM (inactive) | > 30 µM (inactive) | Cn1cc(-c2cnc3ccc4ccc(CS(=O)(=O)NCc5ccccn5)cc4c(=O)c3c2)cn1 [MK-8033]
> 30 µM (inactive) | > 30 µM (inactive) | > 30 µM (inactive) | FC(F)(F)c1ccc(/C=C/c2nc(COc3ccc(CCCCn4ccnn4)cc3)co2)cc1 [MUBRITINIB]
> 30 µM (inactive) | > 30 µM (inactive) | > 30 µM (inactive) | COc1ncc(-c2ccc3nccc(-c4ccnnc4)c3c2)cc1NS(=O)(=O)c1ccc(F)cc1F [OMIPALISIB]
> 30 µM (inactive) | > 30 µM (inactive) | > 30 µM (inactive) | Cc1cnc(NC(=O)Nc2cc(Br)c(C)cc2OC[C@@H]2CNCCO2)cn1 [RABUSERTIB]
> 30 µM (inactive) | > 30 µM (inactive) | > 30 µM (inactive) | CO[C@H]1C[C@@H]2CC[C@@H](C)[C@@](O)(O2)C(=O)C(=O)N2CCCC[C@H]2C(=O)O[C@H]([C@H](C)C[C@@H]2CC[C@@H](OP(C)(C)=O)[C@H](OC)C2)CC(=O)[C@H](C)/C=C(\C)[C@@H](O)[C@@H](OC)C(=O)[C@H](C)C[C@H](C)/C=C/C=C/C=C/1C [RIDAFOROLIMUS]
> 30 µM (inactive) | > 30 µM (inactive) | > 30 µM (inactive) | N#CC1(c2ccc(NC(=O)c3cccnc3NCc3ccncc3)cc2)CCCC1 [RIVOCERANIB]
> 30 µM (inactive) | > 30 µM (inactive) | > 30 µM (inactive) | O=c1[nH]ccc2cc(OC3CCNCC3)ccc12 [SAR-407899 FREE BASE]
> 30 µM (inactive) | 6.41 µM (active) | > 30 µM (inactive) | Cn1cc(-c2cnn3c(N)c(Br)c([C@@H]4CCCNC4)nc23)cn1 [SCH-900776]
> 30 µM (inactive) | > 30 µM (inactive) | > 30 µM (inactive) | CO[C@H]1C[C@@H]2CC[C@@H](C)[C@@](O)(O2)C(=O)C(=O)N2CCCC[C@H]2C(=O)O[C@H]([C@H](C)C[C@@H]2CC[C@@H](O)[C@H](OC)C2)CC(=O)[C@H](C)/C=C(\C)[C@@H](O)[C@@H](OC)C(=O)[C@H](C)C[C@H](C)/C=C/C=C/C=C/1C [SIROLIMUS]
> 30 µM (inactive) | > 30 µM (inactive) | > 30 µM (inactive) | CCS(=O)(=O)c1cccc(-c2cc(C(=O)NC3CCN(C)CC3)c(C)c3[nH]c4ncc(C)cc4c23)c1 [TAK-901]
> 30 µM (inactive) | > 30 µM (inactive) | > 30 µM (inactive) | CO[C@H]1C[C@@H]2CC[C@@H](C)[C@@](O)(O2)C(=O)C(=O)N2CCCC[C@H]2C(=O)O[C@H]([C@H](C)C[C@@H]2CC[C@@H](OC(=O)C(C)(CO)CO)[C@H](OC)C2)CC(=O)[C@H](C)/C=C(\C)[C@@H](O)[C@@H](OC)C(=O)[C@H](C)C[C@H](C)/C=C/C=C/C=C/1C [TEMSIROLIMUS]
> 30 µM (inactive) | > 30 µM (inactive) | > 30 µM (inactive) | COc1cc2c(Nc3ccc(Cl)c(Cl)c3F)ncnc2cc1OC[C@@H]1C[C@@H]2CN(C)C[C@@H]2C1 [TESEVATINIB]
> 30 µM (inactive) | > 30 µM (inactive) | > 30 µM (inactive) | O=C(Cc1ccc(-c2ccc(OCCN3CCOCC3)cc2)cn1)NCc1ccccc1 [TIRBANIBULIN]
> 30 µM (inactive) | > 30 µM (inactive) | > 30 µM (inactive) | O=C1NC(=O)[C@@H](c2cn3c4c(cccc24)CCC3)[C@@H]1c1c[nH]c2ccccc12 [TIVANTINIB]
> 30 µM (inactive) | > 30 µM (inactive) | > 30 µM (inactive) | C[C@@H](NC(=O)c1ncnc(N)c1Cl)c1ncc(C(=O)Nc2cc(C(F)(F)F)c(Cl)cn2)s1 [TOVORAFENIB]
> 30 µM (inactive) | 1.37 µM (active) | > 30 µM (inactive) | CC(C)c1cc(CNc2nc(Nc3cc(C4CC4)[nH]n3)cc(N3CCN(C)CC3)n2)on1 [XL-228]
> 30 µM (inactive) | 0.572 µM (active) | > 30 µM (inactive) | C[C@@H](N)c1ccc(C(=O)Nc2ccnc3[nH]ccc23)cc1 [Y-39983]
1.6 µM | 0.474 µM (active) | 1.07 µM (active) | CN1C/C=C/CCOc2cccc(c2)-c2ccnc(n2)Nc2cccc(c2)C1 [ZOTIRACICLIB]

SMILES | Kd [1] | Kd [2] | Kd [3]
CCOc1cc2ncc(C#N)c(Nc3ccc(F)c(Cl)c3)c2cc1NC(=O)/C=C/CN(C)C [PELITINIB] | > 30 µM (inactive) | > 30 µM (inactive) | > 30 µM (inactive)
CCCCCCCCCCCCCCCCCCOP(=O)([O-])OC1CC[N+](C)(C)CC1 [PERIFOSINE] | > 30 µM (inactive) | > 30 µM (inactive) | > 30 µM (inactive)
CNC(=O)c1cc(Oc2ccc(NC(=O)Nc3cc(C(C)(C)C)nn3-c3ccc4ncccc4c3)c(F)c2)ccn1 [REBASTINIB] | > 30 µM (inactive) | > 30 µM (inactive) | > 30 µM (inactive)
CN1CCN(CCOc2cc(OC3CCOCC3)c3c(Nc4c(Cl)ccc5c4OCO5)ncnc3c2)CC1 [SARACATINIB] | > 30 µM (inactive) | > 30 µM (inactive) | > 30 µM (inactive)
Cc1cc(Nc2ncnc3ccc(NC4=NC(C)(C)CO4)cc23)ccc1Oc1ccn2ncnc2c1 [TUCATINIB] | > 30 µM (inactive) | > 30 µM (inactive) | > 30 µM (inactive)

Reference: ChEMBL document CHEMBL3991601, “The target landscape of clinical kinase drugs” (Science, 2017)
